Results: publication PMC10009108, “Design, synthesis and screening of indole acetic acid-based tri-azo moieties as antioxidants, anti-microbial and cytotoxic agents” (Frontiers in Pharmacology, 2023)
Converted amounts (≈) assume the structure as drawn. One block for each molecule: values may come before it.

Experiments:
[1] = test system: Mucor species (FCBP-0300); assay: Antifungal disc diffusion assay; assay type: cell-based; settings: Mucor; 20 μg/disc
Method: (§1) The antifungal response to these chemical moieties was evaluated through a procedure designated by ([Zahra et al., 2017]). Amphotericin B (4 mg/mL DMSO) is used as + ve control and DMSO as-ve one (5 μL/disc). Sterile SDA-coated plates were used, on which 100 µL of suspension of spores for each strain (previously reaped-in-Tween-20 solution) was spread. Discs of sterile filter paper containing 5 µL of sample solution (4 mg/mL DMSO) were kept on plates and incubated for 2 days at 28°C. Zones of inhibition were recorded.
(§2) The Synthetic compound library was subjected to an antifungal assay using five different strains of Fungai, i.e., Fusarium solani (FCBP-0291), Aspergillus fumigatus (FCBP-66), Aspergillus flavus (FCBP-0064), Aspergillus niger (FCBP-0198) and Mucor species (FCBP-0300). Amphotericin B was the standard drug used. […] The outcomes are concise in Table 5.

[2] = test system: Aspergillus niger (FCBP-0198); assay: Antifungal disc diffusion assay; assay type: cell-based; settings: Aspergillus niger; 20 μg/disc
Method: as §1, §2

[3] = test system: Aspergillus flavus (FCBP-0064); assay: Antifungal disc diffusion assay; assay type: cell-based; settings: Aspergillus flavus; 20 μg/disc
Method: as §1, §2

[4] = test system: Aspergillus fumigatus (FCBP-66); assay: Antifungal disc diffusion assay; assay type: cell-based; settings: Aspergillus fumigatus; 20 μg/disc
Method: as §1, §2

[5] = test system: Fusarium solani (FCBP-0291); assay: Antifungal disc diffusion assay; assay type: cell-based; settings: Fusarium solani, 20 μg/disc; read-out: Zone of inhibition, F. solani
Method: as §1, §2

in vivo = assay: in vivo
Method: The cytotoxic evaluation was accomplished using the decorum designed by ([Khan et al., 2011]). To a plate of 96 wells, artificial seawater and nauplii were added. Test samples were taken in wells (40, 20, 10, 5 μg/mL) after making up the final volume with seawater, the plates were left uncovered under the lamp, and after 24 h, the number of surviving larvae was calculated. For samples having ≥50% mortality, the median lethal conc was calculated using the table curve software, Doxorubicin was used as + ve control, and DMSO was the -ve. The percentage of killed organisms was found using the formula. Percentage Mortality=No of dead shrimps÷Total Number of Shrimps×100
The results of all the experiments were articulated as mean ± SD. Each test was performed in triplicate. TAC assay was analyzed by one-way analysis of variance (ANOVA) following DUNCAN’S test using the statistical package for social sciences 18 and p < 0.05 was considered as significant where appropriate. For samples having ≥50% mortality, the median lethal concentration (LC50) was calculated using the table curve software.
This evaluation test forms the basis for the bioactive scanning of compounds for their potential as anti-cancer moieties, to be investigated on a large scale ([Amanullah et al., 2012]). […] Similarities between Artemia salina and mammalian cells have been reported due to DNA-dependent RNA polymerases ([Birndorf et al., 1975]). These Schiff bases were investigated for their cytotoxic potential. […] Doxorubicin was used as the positive control.

[6] = test system: Streptomyces 85 E strains; assay: Protein kinase inhibition assay; assay type: cell-based; parameters: key: Active = Bacterial activity; --- = no activity; settings: Sample Concentration = 20 μg/mL; Surfactin B 20 μg/mL
Method: The protocol followed for this is mentioned ([Fatima et al., 2015]). To assess the test compound’s inhibitory potential, Streptomyces 85 E strains were used, which were refreshed in tryptone soya broth at 37 for 1 day. Spores from refreshed cultures were utilized to prepare the bacterial culture. 100 μg compound was loaded on 5 mm discs of filter paper. These were kept on sowed plates. DMSO-permeated discs were the -ve control. The incubation period was 7 days, and outcomes were stated as bald and clear zones of inhibition.
These synthetic products were evaluated to estimate the inhibitory potential for protein kinase of […] 85 E. Protein kinase is involved with the mycelium production of this species, so the growth patterns were observed as the bald zone. […] One of the propitious targets in cancer treatment is the inhibition of protein kinases. Protein phosphorylation by protein kinases at various residues regulates diverse biological processes, which may include apoptosis, proliferation and differentiation of cells. Deregulation at any step in early tumorigenesis may lead to cancer ([Yao et al., 2011]). Aerial hyphae formation in Streptomyces depends upon protein kinase activity; this scenario is exploited in this test; to inquire about these compounds’ kinase inhibition potential and to look at their anti-cancer potential. The advantage of using Streptomyces for kinase inhibition assay is its predisposition to a wide range of eukaryotic cells. Whole-cell assay of Streptomyces not only identifies the compound’s cytotoxic potential but also identifies signal transduction inhibitors for various activities, e.g., antitumor, anti-mycobacterial, and anti-infective ([Waters et al., 2002]). […] Activity with a bald zone of 10.5 mm and a clear zone of 7.5 mm, following is 5a with a bald zone of 9 mm and a clear zone of 6 mm, and for 5g, values are 7.5 and 6 mm, respectively. It means that these compounds have the potential for protein kinase inhibition as well as the toxicity of the compound.

[7] = test system: Streptomyces 85 E strains; assay: Protein kinase inhibition assay; assay type: cell-based; settings: Sample Concentration = 20 μg/mL; Surfactin B 20 μg/mL
[8] = test system: Bacillus subtilis (ATCC-6633); assay: Antibacterial assay, micro broth dilution; assay type: cell-based; parameters: key to Antibacterial activity, Bacillus subtilis: Activity: Active = Bacterial activity; --- = no activity
Source text: (§3) The micro broth dilution method was used to establish the antibacterial potential of test samples against Staphylococcus aureus (ATCC-6538), Bacillus subtilis (ATCC-6633), Escherichia coli (ATCC-25922), Klebsiella pneumoniae (ATCC-1705), and Pseudomonas aeruginosa (ATCC-15442) and for the resistant strains of MRSA Staphylococcus aureus, P. aeruginosa and Escherichia coli. The procedure used is described by ([Sarker et al., 2007]). Bacterial inoculum was formed under aseptic conditions keeping the density near 5 × 10^4 CFU/mL in pre-autoclaved nutrient broth. Test samples of an aliquot of 5 µL were shifted to labeled wells of 96 well plates, and after that addition of 195 µL of nutrient broth; was accomplished. After that, a 2-fold serial dilution of every sample was arranged to get final concentrations of 12.5 μg/mL. Then, with the help of a micropipette, 195 µL of bacterial culture of respective strains was poured into each well; further advancement was incubating of plates for 30 min at the temperature of 37°C. […] Incubation of plates was again carried out at 37°C for 1 day, absorbance was noted, and net change in turbidity was the difference between two values of absorbance.
(§4) Schiff base tri-azo compounds were investigated for antibacterial potential. […] 6.25 μg/mL for 5b and 5g, and the least, Table 4 3.12 μg/mL was for 5f. […] Substituents with electron-withdrawing attributes, e.g., -NO2, -Cl, -OH on the aromatic ring, assert a great impact on the antibacterial activity of synthetic compounds. It is also observed that an increase in the number of -OH groups tend to enhance the activity ([Hosamani and Shingalapur, 2011]). Due to the difference in cell-wall composition of Gram + ve and -ve bacteria, different compounds show different features towards the same micro-organism ([Goszczyn’ska et al., 2015]).

[9] = test system: Escherichia coli (ATCC-25922); assay: Antibacterial assay, micro broth dilution; assay type: cell-based; settings: ATCC25922, read-out: E. coli MIC
Source text: as §3, §4

[10] = test system: Klebsiella pneumoniae (ATCC-1705); assay: Antibacterial assay, micro broth dilution; assay type: cell-based; settings: ATCC1705
Source text: as §3, §4

[11] = test system: Pseudomonas aeruginosa (ATCC-15442); assay: Antibacterial assay, micro broth dilution; assay type: cell-based; settings: ATCC15442
Source text: as §3, §4

[12] = test system: Staphylococcus aureus (ATCC-6538); assay: Antibacterial assay, micro broth dilution; assay type: cell-based; settings: ATCC6538, read-out: S. aureus MIC
Source text: as §3, §4

resistant S. aureus = assay: Antibacterial assay, resistant strains; assay type: cell-based, Staphylococcus aureus; settings: resistant strain
Source text: as §3, §4

MRSA [13] = assay: Antibacterial assay, resistant strains; assay type: cell-based; settings: Staphylococcus aureus, resistant strain
Source text: as §3, §4

resistant P. aeruginosa = assay: Antibacterial assay, resistant strains; assay type: cell-based; settings: resistant strain
Source text: as §3, §4

resistant E.coli = assay: Antibacterial assay, resistant strains; assay type: cell-based, Escherichia coli; settings: resistant strain
Source text: as §3, §4

[14] = test system: Staphylococcus aureus (ATCC-6538); assay: Antibacterial assay, micro broth dilution; assay type: cell-based; parameters: key: Active = Bacterial activity; --- = no activity; settings: 25 μg/mL
[15] = test system: Pseudomonas aeruginosa (ATCC-15442); assay: Antibacterial assay, micro broth dilution; assay type: cell-based; parameters: key: Active = Bacterial activity; --- = no activity; settings: 25 μg/mL
[16] = test system: Klebsiella pneumoniae (ATCC-1705); assay: Antibacterial assay, micro broth dilution; assay type: cell-based; parameters: key: Active = Bacterial activity; --- = no activity; settings: 25 μg/mL
[17] = test system: Escherichia coli (ATCC-25922); assay: Antibacterial assay, micro broth dilution; assay type: cell-based; parameters: key: Active = Bacterial activity; --- = no activity; settings: 25 μg/mL
MRSA [18] = assay: Antibacterial assay, resistant strains; assay type: cell-based, Staphylococcus aureus; settings: 25 μg/mL; resistant strain

Molecule: C[C@@H]1[C@H](O)[C@@H](C)/C=C/C=C/C=C/C=C/C=C/C=C/C=C/[C@H](O[C@@H]2O[C@H](C)[C@@H](O)[C@H](N)[C@@H]2O)C[C@@H]2O[C@](O)(C[C@@H](O)C[C@@H](O)[C@H](O)CC[C@@H](O)C[C@@H](O)CC(=O)O[C@H]1C)C[C@H](O)[C@H]2C(=O)O [Amphotericin B, reference compound]
- zone of inhibition at 20 µg/disc [1]: 11.5 mm
- zone of inhibition at 20 µg/disc [2]: 12.5 mm
- zone of inhibition at 20 µg/disc [3]: 12 mm
- zone of inhibition at 20 µg/disc [4]: 10 mm
- zone of inhibition at 20 µg/disc [5]: 11.5 mm

Molecule: COc1cccc2c1C(=O)c1c(O)c3c(c(O)c1C2=O)C[C@@](O)(C(=O)CO)C[C@@H]3O[C@H]1C[C@H](N)[C@H](O)[C@H](C)O1 [Doxorubicin, reference compound]
- LC50 at 24 h (in vivo): 5.7 µg/mL (≈ 10.5 µM)

Molecule: Surfactin B [reference compound]
- Clear zone [6]: ---
- Bald zone [7]: 22.3 mm

- MIC ([8]; Bacillus subtilis, ATCC6633): 3.12 µg/mL (≈ 9.42 µM)
- MIC [9]: 3.12 µg/mL (≈ 9.42 µM)
- MIC [10]: 3.12 µg/mL (≈ 9.42 µM)
- MIC [11]: 3.12 µg/mL (≈ 9.42 µM)
- MIC [12]: 3.12 µg/mL (≈ 9.42 µM)
- MIC (resistant S. aureus; Staphylococcus aureus): 3.12 µg/mL (≈ 9.42 µM)
- MIC (MRSA [13]): 3.12 µg/mL (≈ 9.42 µM)
- MIC (resistant P. aeruginosa; Pseudomonas aeruginosa): 3.12 µg/mL (≈ 9.42 µM)
- MIC (resistant E.coli; Escherichia coli): 3.12 µg/mL (≈ 9.42 µM)
Molecule: O=C(O)c1cn(C2CC2)c2cc(N3CCNCC3)c(F)cc2c1=O [Ciprofloxacin, reference compound]
- Antibacterial activity, Bacillus subtilis: Activity ([8]; 25 μg/mL): Active
- Antibacterial activity, resistant S. aureus: Activity (resistant S. aureus; 25 μg/mL): Active
- Antibacterial activity, resistant P. aeruginosa: Activity (resistant P. aeruginosa; 25 μg/mL): Active
- Antibacterial activity, resistant E.coli: Activity (resistant E.coli; 25 μg/mL): Active
- Antibacterial activity, S. aureus: Activity [14]: Active
- Antibacterial activity, Pseudomonas aeruginosa: Activity [15]: Active
- Antibacterial activity, Klebsiella pneumoniae: Activity [16]: Active
- Antibacterial activity, E. coli: Activity [17]: Active
- Antibacterial activity, MRSA: Activity (MRSA [18]): Active
